Here are results for 20 compounds from US5736548A, “6-aryl pyrazolo[3,4-D] pyrimidin-4-ones and compositions and method of use thereof” (Sanofi, priority 1997, dated 1998).

“And” between values parts separate entries of the source, which are not always exact repeats. Identical values can stand only once. Counter-ions that a name gives are not always drawn.

One experiment concerns the target cGMP-PDE V (Homo sapiens, UniProt O76074). The experiment in a line: biochemical. Details: species or system various animal species and man. The settings on record: for IC50: values separated by / and marked * are separate experimental runs; for inhibition at 0.1 µM / inhibition at 1 µM: read-out: Percent Inhibition cGMP-PDE V. As for the experimental part: The cGMP-PDE and other PDE isozymes were isolated from cardiovascular tissues (heart and aorta) of various animal species and man by anion-exchange and affinity chromatography as described by Silver et al., Sec. Messeng. Phos. 13:13-25, 1991; PDE activity, in the presence and absence of test compounds was determined essentially as described by Thompson et al., Adv. Cyclic Nucleotide Res. 10:69-92. To determine the potency and selectivity of compounds as PDE inhibitors, compounds are screened for their effect on cyclic nucleotide hydrolysis at 10 μM. […] The IC50 values are calculated from concentration-response curves as described by Tallarida and Murray, Manual of Pharmacologic Calculations with Computer Programs, Procedure 8, Graded Dose-response, pp. 14-19, Springer-Verlag, New York, 1981.

The test system of experiment [1] is Spontaneously hypertensive rats (SHR). Briefly: Antihypertensive activity in conscious spontaneously hypertensive rats (mean arterial pressure). The class given is in vivo. Particulars: Rattus norvegicus, 5 min, SHR iv. As to the method: After a 2 day recovery from surgery, three baseline blood pressure measurements were made at 5 min intervals in conscious SHR. Compounds to be tested or vehicle were then administered intravenously in a dose-dependent manner (0.3-10 mg base/kg) while arterial pressure was recorded continuously on a polygraph. The mean arterial pressure response was measured 5 minutes after the administration of each dose of the test compound and the next dose given in a cumulative dose fashion. The response to each dose of the test compound was calculated as the difference from the mean of the three baseline measurements.

For experiment [2], the system named is nitroglycerin tolerant spontaneously hypertensive rats. The experiment in a line: Reversal of nitroglycerin-induced tolerance in spontaneously hypertensive rats. Particulars: for Percent (%) Reversal of Nitroglycerin-induced Tolerance: intravenously 5-10 minutes prior to nitroglycerin challenge. The class given is in vivo. As to the method: Spontaneously hypertensive rats (17-25 weeks of age) were made nitroglycerin tolerant by repeated administration of high doses of nitroglycerin (100 mg/kg, s.c., 3 times/day for 3 consecutive days). To confirm tolerance challenge doses of nitroglycerin were administered intravenously at doses ranging from 1-300 μg/kg and the maximum change in mean arterial pressure (MAP) for each dose was recorded. Groups of tolerant rats were pretreated with the compounds of the invention (tolerant pretreated group) or with vehicle (0.05N NaOH) (tolerant vehicle pretreated group) intravenously 5-10 minutes prior to administration of challenge doses of nitroglycerin. The administration of challenge doses of nitroglycerin to non-tolerant rats (the non-tolerant group) caused a dose-dependent decrease in MAP of between 10 to 40 mm Hg. […] The area under the dose-MAP curve was calculated for the non-tolerant group and for the tolerant vehicle pretreated group and the tolerant pretreated group. The percent reversal of nitrate-inducedtolerance was calculated as follows:
Percent Reversal=(AUCtol -pretreated-AUCtol-veh)/(AUCnontol
AUCnontol =the area under the dose-MAP curve for the non-tolerant group.
AUCtol-veh =the area under the dose-MAP curve for the tolerant vehicle pretreated group.
AUCtol-pretreated =the area under the dose-MAP curve for the tolerant pretreated group.
The following table summarizes the results obtained from the testing of representative compounds of the invention.

In experiment [3] the test system is Spontaneously hypertensive rats (SHR). The experiment in a line: Antihypertensive activity in conscious spontaneously hypertensive rats (mean arterial pressure). The class given is in vivo. The settings on record: Rattus norvegicus, 5 min, po.

Usually IC50 stands for the concentration at which inhibition is half-maximal. What is called inhibition is the drop in the measured response relative to a control, in per cent.

As for `CCCOc1ccccc1-c1nc2n(C3CCCC3)[nH]c(C)c-2c(=O)n1` [1 (c), 1-cyclopentyl-3-methyl-6-(2-propoxyphenyl)-pyrazolo[3,4-d]pyrimidin-4-one], at cGMP-PDE V, the IC50 was 7 nM and 3 nM. Moreover, in experiment [1] (5 minutes after dose), the change in vivo at 1 mg/kg is -5%.
`CCc1nn(C2CCCC2)c2nc(-c3ccc(-n4ccnc4)cc3)[nH]c(=O)c12` [8 (a), 1-cyclopentyl-3-ethyl-6-[4-(1-imidazolyl)phenyl]-pyrazolo-[3,4-d] pyrimidin-4-one 1/2 hydrate]: the IC50 at cGMP-PDE V was 410 nM and 430 nM. Moreover, in experiment [1], the ED25 came out at 5.7 mg/kg. In experiment [1] (5 minutes after dose), the change in vivo at 3 mg/kg is -20% and the change in vivo at 10 mg/kg is -35%. For the same compound, the “Percent (%) Reversal of Nitroglycerin-induced Tolerance” value (“Percent (%) Reversal” below) in experiment [2] (0.3 mg/kg) is 5%. For the same compound, the change in vivo at 30 mg/kg in experiment [3] is -81%.
For `C=CCOc1ccccc1-c1nc2c(c(CC)nn2C2CCCC2)c(=O)[nH]1` [9 (b), 1-cyclopentyl-3-ethyl-6-[2-(CH2 =CH--CH2 O)phenyl]pyrazolo[3,4-d]pyrimidin-4-one], on cGMP-PDE V, the IC50 stood at 4.9 nM. For the same compound, the change in vivo at 10 mg/kg in experiment [1] (5 minutes after dose) was -19%.
`CCc1[nH]n(C2CCCC2)c2nc(-c3cccc(OCCN4CCOCC4)c3)nc(=O)c1-2` [13 (b), 1-cyclopentyl-3-ethyl-6-[3-[2-(4-morpholinyl)ethoxy]phenyl]-pyrazolo[3,4-d]pyrimidin-4-one] had an IC50 at cGMP-PDE V of 107 nM. In addition, in experiment [1], the ED25 was 9.5 mg/kg. For the same compound, the change in vivo at 0.3 mg/kg in experiment [1] (0.3 mg/kg, 5 minutes after dose) was -11%. Also, in experiment [1] (5 minutes after dose), the change in vivo at 1 mg/kg was -14% and the change in vivo at 3 mg/kg was -19%. For the same compound, the “Percent (%) Reversal” value in experiment [2] (0.3 mg/kg) was determined as 58%. In experiment [3], the change in vivo at 30 mg/kg is -58%.
As to `CCc1[nH]n(C2CCCC2)c2nc(-c3cccc(OCCN4CCCCC4)c3)nc(=O)c1-2` [19 (b), 1-cyclopentyl-3-ethyl-6-[3-[2-(1-piperidinyl)ethoxy]phenyl]pyrazolo[3,4-d]pyrimidin-4-one], at cGMP-PDE V, 73 nM corresponded to half-maximal inhibition (IC50). This compound returned an ED25 in experiment [1] of 12.5 mg/kg. In experiment [1] (5 minutes after dose), the change in vivo at 10 mg/kg was -19%.
On cGMP-PDE V, `CCc1[nH]n(C2CCCC2)c2nc(-c3cccc(OCCN4CCCC4)c3)nc(=O)c1-2` [22 (b), 1-cyclopentyl-3-ethyl-6-[3-[2-(1-pyrrolidinyl)ethoxy]phenyl]pyrazolo[3,4-d]pyrimidin-4-one] had an IC50 of 140 nM. The compound also showed an ED25 in experiment [1] of 17.9 mg/kg. Moreover, in experiment [1] (5 minutes after dose), the change in vivo at 10 mg/kg was -18%.
Turning to `CCc1[nH]n(C2CCCC2)c2nc(-c3cccc(-n4ccnc4)c3)nc(=O)c1-2` [24 (c), 1-cyclopentyl-3-ethyl-6-[3-(1-imidazolyl)phenyl]pyrazolo-[3,4-d]pyrimidin-4-one], the half-inhibitory concentration (IC50) against cGMP-PDE V is 130 nM. The ED25 in experiment [1] stood at 12.7 mg/kg. In experiment [1] (5 minutes after dose), the change in vivo at 3 mg/kg was -13% and the change in vivo at 10 mg/kg was -21%.
As for `CCc1nn(C2CCCC2)c2nc(-c3ccc(OCCN4CCOCC4)c(OCCN4CCOCC4)c3)[nH]c(=O)c12` [25 (b), 1-cyclopentyl-3-ethyl-6-[3,4-[2-(4-morpholinyl)ethoxy]phenyl]pyrazolo[3,4-d]pyrimidin-4-one], the IC50 against cGMP-PDE V was 14 nM and 51 nM. This compound also registered an ED25 in experiment [1] of 4.5 mg/kg. Besides, in experiment [1] (5 minutes after dose), the change in vivo at 1 mg/kg is -18%, the change in vivo at 3 mg/kg was -27% and the change in vivo at 10 mg/kg was -38%. The change in vivo at 10 mg/kg in experiment [3] (10 mg/kg) was -18%.
At cGMP-PDE V, `CCc1[nH]n(C2CCCC2)c2nc(-c3ccccc3C)nc(=O)c1-2` [Example 3, 1-cyclopentyl-3-ethyl-6-(2-methylphenyl)-pyrazolo[3,4-d]pyrimidin-4-one] had an IC50 of 200 nM. For the same compound, the change in vivo at 1 mg/kg in experiment [1] (5 minutes after dose) is -7%.
As to `CCOc1ccccc1-c1nc2n(C3CCCC3)[nH]c(CC)c-2c(=O)n1` [Example 4, 1-cyclopentyl-3-ethyl-6-(2-ethoxyphenyl)-pyrazolo[3,4-d]pyrimidin-4-one], the IC50 at cGMP-PDE V worked out at 5.8 nM. Moreover, in experiment [1] (5 minutes after dose), the change in vivo at 10 mg/kg is -13%.
With `CCc1[nH]n(C2CCCC2)c2nc(-c3ccccc3OC)nc(=O)c1-2` [Example 5, 1-cyclopentyl-3-ethyl-6-(2-methoxyphenyl)-pyrazolo[3,4-d]pyrimidin-4-one], the IC50 against cGMP-PDE V amounted to 87 nM. Besides, the change in vivo at 1 mg/kg in experiment [1] (5 minutes after dose) was -8%.
`CCCOc1ccccc1-c1nc2n(C3CCCC3)[nH]c(CC)c-2c(=O)n1` [Example 6, 1-cyclopentyl-3-ethyl-6-(2-propoxyphenyl)-pyrazolo[3,4-d]pyrimidin-4-one] yielded an IC50 against cGMP-PDE V of 1.6 nM. In experiment [1] (5 minutes after dose), the change in vivo at 10 mg/kg is -1%. Also, the “Percent (%) Reversal” value in experiment [2] (1.0 mg/kg) turned out to be 49%.
Compound `CCc1[nH]n(C2CCCC2)c2nc(-c3cccc(OCC(=O)O)c3)nc(=O)c1-2` [Example 21, 1-cyclopentyl-3-ethyl-6-[3-(carboxymethoxy)phenyl]pyrazolo[3,4-d]pyrimidin-4-one] returned an IC50 at cGMP-PDE V of 93 nM. Also, the change in vivo at 10 mg/kg in experiment [1] (5 minutes after dose) was -1%.
`CCc1[nH]n(C2CCCC2)c2nc(-c3ccc(Cl)cc3O)nc(=O)c1-2` [Example 30, 1-cyclopentyl-3-ethyl-6-(4-chloro-2-hydroxyphenyl)pyrazolo[3,4-d]pyrimidin-4-one]: on cGMP-PDE V, the inhibition at 0.1 µM is 9% and the inhibition at 1 µM is 53%.
The like results for `CCc1nn(C2CCCC2)c2nc(-c3ccc(N)cc3)[nH]c(=O)c12` [Example 31, 1-cyclopentyl-3-ethyl-6-(4-aminophenyl)pyrazolo[3,4-d]pyrimidin-4-one hydrochloride 1/3 hydrate] were, in that order, 31% and 61%.
In the case of `CCc1nn(C2CCCC2)c2nc(-c3ccc4c(c3)CCO4)[nH]c(=O)c12` [Example 32, 1-cyclopentyl-3-ethyl-6-(2,3-dihydrobenzo[b]furan-5-yl)pyrazolo[3,4-d]pyrimidin-4-one 1/10 hydrate], on cGMP-PDE V, the inhibition at 0.1 µM is 23% and the inhibition at 1 µM amounted to 47%.
For `CCc1[nH]n(C2CCCC2)c2nc(-c3ccc(NS(C)(=O)=O)cc3)nc(=O)c1-2` [Example 33, 1-cyclopentyl-3-ethyl-6-[4-(methylsulfonylamino)phenyl]pyrazolo[3,4-d]pyrimidin-4-one], on cGMP-PDE V, the inhibition at 0.1 µM was determined as 21% and the inhibition at 1 µM was determined as 56%.
For the compound `C=CCc1cccc(-c2nc3n(C4CCCC4)[nH]c(CC)c-3c(=O)n2)c1O` [Example 36, 1-cyclopentyl-3-ethyl-6-[2-hydroxy-3-(2-propenyl)phenyl]pyrazolo[3,4-d]pyrimidin-4-one], on cGMP-PDE V, the inhibition at 0.1 µM came to 0% and the inhibition at 1 µM worked out at 4%.
The matching figures for `CCc1[nH]n(C2CCCC2)c2nc(-c3cccc(O)c3)nc(=O)c1-2` [Example 44, 1-cyclopentyl-3-ethyl-6-(3-hydroxyphenyl)pyrazolo[3,4-d]pyrimidin-4-one]: 29% and 56%.
With `O=[N+]([O-])OCC(CO[N+](=O)[O-])O[N+](=O)[O-]` [nitroglycerin, reference compound], the “hypotensive response to nitroglycerin challenge, tolerant vehicle pretreated group (in words)” value in experiment [2] (tolerant rats, vehicle pretreated, nitroglycerin 1-300 μg/kg iv) was “significant reduction of the hypotensive response”.
